Test results from US20250127907A1, “PARP INHIBITORS” (Stablix, Inc., priority 2023, published 2025).
Like-named read-outs stand apart in the source and are kept apart here.

Experiments:
[1] = molecular target: T1, PARP1 (Homo sapiens, UniProt P09874); test: PARP1-enzyme assay (NAD/NADH-Glo biochemical assay); conditions: recombinant PARP1, NAD+ consumption
Protocol: The PARP enzyme catalyzes the transfer of ADP-Ribose from NAD+ onto PAR chains/histone substrates. The catalytic cycle is monitored indirectly with the NAD/NADH-Glo Assay kit from Promega. […] NAD+ consumed is determined by comparison to the no enzyme control.
• Recombinant PARP1 • NAD+/NAHD-Glow assay Kit • Activated DNA, 10 μg/mL • NAD+(Nicotinamide Adenine Dinucleotide), 500 nM • Protein substrate for PARP1: Core Histone from chicken, 10 μg/mL
The letter codes for the PARP1-enzyme assay include: A (<1 nM), B (>1-10 nM), C (>10-100 nM), D (>100-1000 nM), E (>1000 nM), and “-” is not tested. The letter codes for the PARP trapping assay, and parylation assay include: A (<10 nM), B (>10-100 nM), C (>100-1000 nM), […], E (>10000 nM), and “-” is not tested.
Target sequence in this assay (P09874 whole entry, species assumed): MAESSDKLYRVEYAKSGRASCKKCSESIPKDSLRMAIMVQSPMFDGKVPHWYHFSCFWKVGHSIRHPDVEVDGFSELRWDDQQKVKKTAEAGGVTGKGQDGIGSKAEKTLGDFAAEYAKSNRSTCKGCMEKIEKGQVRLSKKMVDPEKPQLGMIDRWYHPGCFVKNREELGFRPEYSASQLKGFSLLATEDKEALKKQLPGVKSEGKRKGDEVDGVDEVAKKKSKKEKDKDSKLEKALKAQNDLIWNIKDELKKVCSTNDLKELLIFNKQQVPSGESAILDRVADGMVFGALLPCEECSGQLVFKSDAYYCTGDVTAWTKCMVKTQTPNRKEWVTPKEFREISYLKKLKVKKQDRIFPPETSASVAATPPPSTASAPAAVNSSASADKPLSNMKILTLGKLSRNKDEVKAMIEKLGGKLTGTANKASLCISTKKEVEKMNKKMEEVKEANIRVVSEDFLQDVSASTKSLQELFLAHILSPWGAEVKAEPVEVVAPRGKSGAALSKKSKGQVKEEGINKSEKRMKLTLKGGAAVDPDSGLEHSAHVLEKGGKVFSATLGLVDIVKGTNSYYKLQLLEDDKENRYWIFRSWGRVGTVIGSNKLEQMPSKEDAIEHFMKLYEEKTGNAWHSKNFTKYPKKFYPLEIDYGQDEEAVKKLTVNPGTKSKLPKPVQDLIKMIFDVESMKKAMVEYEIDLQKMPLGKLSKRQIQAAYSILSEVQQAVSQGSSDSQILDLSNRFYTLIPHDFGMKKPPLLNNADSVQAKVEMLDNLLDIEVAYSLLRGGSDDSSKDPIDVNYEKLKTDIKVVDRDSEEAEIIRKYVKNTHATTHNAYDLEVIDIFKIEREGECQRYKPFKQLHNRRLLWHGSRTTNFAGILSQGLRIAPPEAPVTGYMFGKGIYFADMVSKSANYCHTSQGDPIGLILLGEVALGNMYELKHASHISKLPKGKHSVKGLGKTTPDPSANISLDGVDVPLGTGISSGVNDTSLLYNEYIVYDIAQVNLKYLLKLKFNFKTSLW

[2] = tested on: Poly/Mono-ADP Ribose in U2OS cells; test: PAR in cell western assay (parylation) in U2OS cells; format: cell-based; conditions: U2OS cells, 6 hrs, 2 mM H2O2, read-out: Parylation (U2OS)
Summary of the method: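 U2OS cells treated with compound for 6 h, then 2 mM H2O2 for 10 min to induce DNA damage. After methanol fixation, cells stained overnight at 4 °C with anti-mono/poly-ADP-ribose antibody and imaged by infrared in-cell western, normalized to CellTag 700; reported as % control inhibition.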

[3] = tested on: A2780 cells; test: Cell proliferation assay (A2780); format: cell-based; conditions: Homo sapiens, 168 h, 7 days
[4] = tested on: HCC1806 cells; test: Cell proliferation assay (HCC1806); format: cell-based; conditions: 7 days
[5] = tested on: MDA-MB-436 cells; test: Cell proliferation assay (MDA-MB-436); format: cell-based; conditions: 7 days
[6] = molecular target: T1, PARP1; test: PARP trapping assay in U2OS cells; format: cell-based; design: endogenous in cells; host or cells: U2OS; conditions: U2OS cells, MMS, 4 hrs; read-out: PARP Trapping (U2OS)
Summary of the method: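 U2OS cells co-treated with compounds and MMS for 4 h, then soluble proteins extracted with 0.5% Triton X-100, MeOH-fixed and immunostained for PARP1. Chromatin-bound PARP1 quantified as AF488 intensity per DAPI-segmented nucleus; potencies reported as letter-code bins.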
Target sequence in this assay (P09874 whole entry): as the sequence (P09874 whole entry, species assumed) above

SMILES | IC50 [1] [nM] | IC50 ([2]; Homo sapiens) [nM] | IC50 [3] [nM] | IC50 ([4]; Homo sapiens, 168 h) [nM] | IC50 ([5]; Homo sapiens, 168 h) [nM] | IC50 [6] [nM] | IC50 [2] [nM] | IC50 [4] [nM] | IC50 [5] [nM]
CCOc1cc(OC)ccc1CNCC(=O)N1CCCC(c2cccc(C(=O)N[C@@H](C(=O)N3CCN(CC4CCN(CC(=O)N5CCN(C(=O)c6cc(Cc7n[nH]c(=O)c8ccccc78)ccc6F)CC5)CC4)CC3)C3CCCCC3)c2)C1 (stereo partly shown) [Compound I-28] | < 1 | 100 to 1000 | 1000 to 10000 | 100 to 1000 | 10 to 100 | 100 to 1000 | – | – | –
CCOc1cc(OC)ccc1CNCC(=O)N1CCCC(c2cccc(C(=O)N[C@@H](C(=O)NCc3cn(CCNCC(=O)N4CCN(C(=O)c5cc(Cc6n[nH]c(=O)c7ccccc67)ccc5F)CC4)nn3)C3CCCCC3)c2)C1 (stereo partly shown) [Compound I-29] | < 1 | < 10 | – | < 10 | 1000 to 10000 | – | – | – | –
CCOc1cc(OC)ccc1CNCC(=O)N1CCCC(c2cccc(C(=O)N[C@@H](C(=O)NCCOCCOCCOCCOCCNCC(=O)N3CCN(C(=O)c4cc(Cc5n[nH]c(=O)c6ccccc56)ccc4F)CC3)C3CCCCC3)c2)C1 (stereo partly shown) [Compound I-31] | < 1 | < 10 | – | < 10 | 100 to 1000 | – | – | – | –
CCc1cccc(-c2cnc(C(=O)NCCOCCNCC(=O)N3CCN(C(=O)c4cc(Cc5n[nH]c(=O)c6ccccc56)ccc4F)CC3)c(NC(=O)CNCc3cccc(C)c3)c2)c1 [Compound I-63] | < 1 | 100 to 1000 | 10 to 100 | 100 to 1000 | 100 to 1000 | 100 to 1000 | – | – | –
COC12CCC(CNCC(=O)N3CCCC(c4cccc(C(=O)N[C@@H](C(=O)N5CCN(CC6CCN(CC(=O)N7CCN(C(=O)c8cc(Cc9n[nH]c(=O)c%10ccccc9%10)ccc8F)CC7)CC6)CC5)C5CCCCC5)c4)C3)(CC1)OC2 (stereo partly shown) [Compound I-157] | < 1 | 100 to 1000 | – | < 10 | 10 to 100 | 100 to 1000 | – | – | –
COC12CCC(CNCC(=O)N3CCCC(c4cccc(C(=O)N[C@@H](C(=O)N5CCC(CN6CCN(CC(=O)N7CCN(C(=O)c8cc(Cc9n[nH]c(=O)c%10ccccc9%10)ccc8F)CC7)CC6)CC5)C5CCCCC5)c4)C3)(CC1)OC2 (stereo partly shown) [Compound I-165] | < 1 | 100 to 1000 | – | < 10 | 10 to 100 | 100 to 1000 | – | – | –
CCOc1cc(OC)ccc1CNCC(=O)N1CCCC(c2cccc(C(=O)N[C@@H](C(=O)N3CCN(CC45CCC(C(=O)N6CCN(C(=O)c7cc(Cc8n[nH]c(=O)c9ccccc89)ccc7F)CC6)(CC4)CO5)CC3)C3CCCCC3)c2)C1 (stereo partly shown) [Compound I-166] | < 1 | 100 to 1000 | – | < 10 | 10 to 100 | 10 to 100 | – | – | –
CCOc1cc(OC)ccc1CNCC(=O)N1CCC[C@H](c2cccc(C(=O)N[C@@H](C(=O)N3CCN(CC4CCN(CC(=O)N5CCN(C(=O)c6cc(Cc7n[nH]c(=O)c8ccccc78)ccc6F)CC5)CC4)CC3)C3CCCCC3)c2)C1 [Compound I-167] | < 1 | 100 to 1000 | – | < 10 | 100 to 1000 | 10 to 100 | – | – | –
CCOc1cc(OC)ccc1CNCC(=O)N1CCCC(c2cccc(C(=O)N[C@@H](C(=O)N3CCC(OC4CCN(CC(=O)N5CCN(C(=O)c6cc(Cc7n[nH]c(=O)c8ccccc78)ccc6F)CC5)CC4)CC3)C3CCCCC3)c2)C1 (stereo partly shown) [Compound I-173] | < 1 | 100 to 1000 | – | < 10 | 10 to 100 | 10 to 100 | – | – | –
Cc1sc(CN2CCCC2c2nnc3n2CCCCC3)nc1C12CC(C(=O)NCCOCCOCCNCC(=O)N3CCN(C(=O)c4cc(Cc5cccc6c(=O)[nH]ncc56)ccc4F)CC3)(C1)C2 (stereo not shown) [Compound I-193] | < 1 | – | – | – | – | > 10000 | 100 to 1000 | < 10 | 100 to 1000
Cc1sc(CN2CCCC2c2nnc3n2CCCCC3)nc1C12CC(C(=O)NCCOCCOCCOCCNCC(=O)N3CCN(C(=O)c4cc(Cc5n[nH]c(=O)c6ccccc56)ccc4F)CC3)(C1)C2 (stereo not shown) [Compound I-194] | < 1 | 100 to 1000 | – | < 10 | 100 to 1000 | > 10000 | – | – | –
Cc1sc(CN2CCCC2c2nnc3n2CCCCC3)nc1C12CC(C(=O)NCCOCCOCCOCCOCCNCC(=O)N3CCN(C(=O)c4cc(Cc5n[nH]c(=O)c6ccccc56)ccc4F)CC3)(C1)C2 (stereo not shown) [Compound I-195] | < 1 | 10 to 100 | – | < 10 | 100 to 1000 | 1000 to 10000 | – | – | –
CCc1cccc(-c2cnc(C(=O)N3CCN(CC4CCN(CC(=O)N5CCN(C(=O)c6cc(Cc7n[nH]c(=O)c8ccccc78)ccc6F)CC5)CC4)CC3)c(NC(=O)CNCc3cc(C)no3)c2)c1 [Compound I-233] | < 1 | 10 to 100 | – | < 10 | 10 to 100 | 100 to 1000 | – | – | –
CCOc1cc(OC)ccc1COCC(=O)N1CCCC(c2cccc(C(=O)N[C@@H](C(=O)N3CCN(CC4CCN(CC(=O)N5CCN(C(=O)c6cc(Cc7n[nH]c(=O)c8ccccc78)ccc6F)CC5)CC4)CC3)C3CCCCC3)c2)C1 (stereo partly shown) [Compound I-354] | < 1 | 100 to 1000 | 10 to 100 | – | 10 to 100 | 10 to 100 | – | – | –
O=C(N[C@@H](C(=O)N1CCN(CC2CCN(CC(=O)N3CCN(C(=O)c4cc(Cc5n[nH]c(=O)c6ccccc56)ccc4F)CC3)CC2)CC1)C1CCCCC1)c1cccc([C@@H]2CCCN(C(=O)CNC3CC3)C2)c1 [Compound I-365] | < 1 | 10 to 100 | 1000 to 10000 | – | 10 to 100 | 100 to 1000 | – | – | –
CCc1cccc(-c2cnc(C(=O)N3CCC(CN4CCN(CC(=O)N5CCN(C(=O)c6cc(Cc7n[nH]c(=O)c8ccccc78)ccc6F)CC5)CC4)CC3)c(N)c2)c1 [Compound I-366] | < 1 | 100 to 1000 | 100 to 1000 | 100 to 1000 | 100 to 1000 | 100 to 1000 | – | – | –
O=C(CNC1CC1)N1CCCC(c2cccc(C(=O)N3CCN(CC45CCC(C(=O)N6CCN(C(=O)c7cc(Cc8n[nH]c(=O)c9ccccc89)ccc7F)CC6)(CC4)CO5)CC3)c2)C1 (stereo not shown) [Compound I-377] | < 1 | 10 to 100 | 10 to 100 | – | < 10 | 10 to 100 | – | – | –
CCc1cccc(-c2cnc(C(=O)N3CCC(OC4CCN(CC(=O)N5CCN(C(=O)c6cc(Cc7n[nH]c(=O)c8ccccc78)ccc6F)CC5)CC4)CC3)c(NC(C)=O)c2)c1 [Compound I-404] | < 1 | 10 to 100 | 10 to 100 | – | < 10 | 100 to 1000 | – | – | –
CCc1cccc(-c2cnc(C(=O)N3CCC(CN4CCN(CC(=O)N5CCN(C(=O)c6cc(Cc7n[nH]c(=O)c8ccccc78)ccc6F)CC5)CC4)CC3)c(NC3CC3)c2)c1 [Compound I-407] | < 1 | 10 to 100 | 10 to 100 | – | < 10 | 10 to 100 | – | – | –
CCc1cccc(-c2cnc(C(=O)N3CCC(CN4CCN(CC(=O)N5CCN(C(=O)c6cc(Cc7n[nH]c(=O)c8ccccc78)ccc6F)CC5)CC4)CC3)c(NC)c2)c1 [Compound I-418] | < 1 | 100 to 1000 | 100 to 1000 | – | < 10 | 100 to 1000 | – | – | –
CCc1cccc(-c2cnc(C(=O)N3CCC(CN4CCN(CC(=O)N5CCN(C(=O)c6cc(Cc7n[nH]c(=O)c8ccccc78)ccc6F)CC5)CC4)CC3)c(OC(F)(F)F)c2)c1 [Compound I-420] | < 1 | 100 to 1000 | 100 to 1000 | – | < 10 | 10 to 100 | – | – | –
